Laboratory results reported in ChEMBL document CHEMBL1201862, “PubChem BioAssay data set” (2004).
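The compound was tested at five concentrations on cells cultured in 96-well plates, with a 48-hour exposure period. GI50: concentration for 50% inhibition of growth.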 Calls of active or inactive are those of the source. No stated cut-off is given here; in the data, active = GI50 up to about 1.1 µM and inactive = higher.

Assays:
Test in all cases: NCI anticancer screen, dose series, 48 h
[1] = system: A498
[2] = system: ACHN
[3] = system: BT-549
[4] = system: HCT-15
[5] = system: HOP-92
[6] = system: HT-29
[7] = system: K562
[8] = system: MCF7
[9] = system: MOLT-4
[10] = system: OVCAR-4
[11] = system: SK-MEL-28
[12] = system: SK-MEL-2
[13] = system: SK-MEL-5
[14] = system: SK-OV-3
[15] = system: SN12C
[16] = system: SW-620
[17] = system: UACC-257
[18] = system: CCRF-CEM
[19] = system: HL-60

SMILES	GI50 [1]	GI50 [2]	GI50 [3]	GI50 [4]	GI50 [5]	GI50 [6]	GI50 [7]	GI50 [8]	GI50 [9]	GI50 [10]	GI50 [11]	GI50 [12]	GI50 [13]	GI50 [14]	GI50 [15]	GI50 [16]	GI50 [17]	GI50 [18]	GI50 [19]
O=C(O)c1ccc2c(O)c(O)ccc2c1	44.4 µM (inactive)	15.8 µM (inactive)	21.6 µM (inactive)	21.6 µM	32.8 µM (inactive)	6.82 µM (inactive)	7.8 µM (inactive)	7.23 µM (inactive)	6.75 µM (inactive)	21.5 µM (inactive)	> 100 µM (inactive)	26.8 µM (inactive)	17.3 µM (inactive)	> 43.1 µM (inactive)	8.61 µM (inactive)	26.5 µM (inactive)	21.1 µM (inactive)		
COC(=O)C1(C)CCCC2(C)c3cc(OC)ccc3C(=O)C(Br)C12 (configuration not stated)	> 10 µM (inactive)		> 10 µM (inactive)	> 10 µM	> 10 µM (inactive)	4.75 µM (inactive)	3.68 µM (inactive)	1.95 µM (inactive)	1.75 µM (inactive)		> 10 µM (inactive)	> 10 µM (inactive)	> 10 µM (inactive)	> 10 µM (inactive)	8.61 µM (inactive)	2.15 µM (inactive)	> 10 µM (inactive)	2.29 µM (inactive)	2.14 µM (inactive)
O=C(O)CC(NC(=O)Nc1ccc([N+](=O)[O-])cc1)C(=O)Nc1ccc([N+](=O)[O-])cc1 (configuration not stated)	> 100 µM (inactive)	> 100 µM (inactive)	> 100 µM (inactive)	> 100 µM		> 100 µM (inactive)	> 100 µM (inactive)	> 100 µM (inactive)	> 100 µM (inactive)	> 100 µM (inactive)	> 100 µM (inactive)	> 100 µM (inactive)	50.8 µM (inactive)	> 100 µM (inactive)		> 100 µM (inactive)	> 100 µM (inactive)	> 100 µM (inactive)	
CC(C)N1CCCOC(c2ccc([N+](=O)[O-])cc2)O1 (configuration not stated)	> 100 µM (inactive)	> 100 µM (inactive)	> 100 µM (inactive)	> 100 µM	> 100 µM (inactive)	> 100 µM (inactive)	> 100 µM (inactive)	80.9 µM (inactive)	> 100 µM (inactive)	> 100 µM (inactive)	> 100 µM (inactive)	> 100 µM (inactive)	58.6 µM (inactive)	> 100 µM (inactive)	> 100 µM (inactive)	> 100 µM (inactive)	> 100 µM (inactive)	> 100 µM (inactive)	
CCOC(=O)c1cn(CC)c2ccc3ccsc3c2c1=O	> 100 µM (inactive)	> 100 µM (inactive)	> 100 µM (inactive)	> 100 µM	> 100 µM (inactive)	> 100 µM (inactive)	> 100 µM (inactive)	> 100 µM (inactive)	> 100 µM (inactive)	> 100 µM (inactive)	> 100 µM (inactive)	75.2 µM (inactive)	> 100 µM (inactive)	> 100 µM (inactive)		> 100 µM (inactive)	> 100 µM (inactive)	> 100 µM (inactive)	> 100 µM (inactive)
COc1cc(OC)c2c(=O)c(OC)c(-c3ccc4c(c3)OCO4)oc2c1	15.6 µM (inactive)	33.6 µM (inactive)	71.1 µM (inactive)	> 100 µM		> 100 µM (inactive)	> 100 µM (inactive)	> 100 µM (inactive)	> 100 µM (inactive)	> 100 µM (inactive)	> 100 µM (inactive)	19.1 µM (inactive)	47.3 µM (inactive)	22.8 µM (inactive)	59.7 µM (inactive)	> 100 µM (inactive)	> 100 µM (inactive)	> 100 µM (inactive)	20.9 µM (inactive)
C/C(=N\NC(N)=O)C(CN1CCOCC1)C(c1ccccc1)c1c(O)c2ccccc2oc1=O (configuration not stated)	8.63 µM (inactive)	> 100 µM (inactive)	> 100 µM (inactive)	> 100 µM	> 100 µM (inactive)	> 100 µM (inactive)	> 100 µM (inactive)	> 100 µM (inactive)	> 100 µM (inactive)	> 100 µM (inactive)	> 100 µM (inactive)	> 100 µM (inactive)	> 100 µM (inactive)	> 100 µM (inactive)		> 100 µM (inactive)	> 100 µM (inactive)	> 100 µM (inactive)	> 100 µM (inactive)
CC1=C/C(=N/N2C(=O)/C(=C/c3ccc(Cl)cc3)N=C2c2ccccc2)CC(C)(C)C1	> 100 µM (inactive)	> 100 µM (inactive)	> 100 µM (inactive)	> 100 µM	94.8 µM (inactive)	70.5 µM (inactive)	66.4 µM (inactive)	49.8 µM (inactive)	25 µM (inactive)	45.9 µM (inactive)	> 100 µM (inactive)	24.9 µM (inactive)	35.7 µM (inactive)	> 100 µM (inactive)	> 100 µM (inactive)	76.2 µM (inactive)	69.2 µM (inactive)		
O=C1C=CC(=O)c2c(NCC3CC3)ccc(NCC3CC3)c21	60.5 µM (inactive)	39.9 µM (inactive)	25.9 µM (inactive)	13.3 µM		32.2 µM (inactive)	22.5 µM (inactive)	24.7 µM (inactive)	11.8 µM (inactive)		28.6 µM (inactive)	50.4 µM (inactive)	22.6 µM (inactive)		23.2 µM (inactive)	34.5 µM (inactive)	29.3 µM (inactive)		11 µM (inactive)
NC(CNO)C(=O)O (configuration not stated)	> 100 µM (inactive)	> 100 µM (inactive)	> 100 µM (inactive)	> 100 µM	> 100 µM (inactive)	> 100 µM (inactive)		> 100 µM (inactive)		> 100 µM (inactive)	> 100 µM (inactive)	> 100 µM (inactive)	> 100 µM (inactive)	> 100 µM (inactive)	> 100 µM (inactive)	> 100 µM (inactive)	> 100 µM (inactive)		6.79 µM (inactive)
COc1cc(C[S+]([O-])c2ccc(O)cc2)cc(OC)c1OC (configuration not stated)	> 100 µM (inactive)	> 100 µM (inactive)	> 100 µM (inactive)	> 100 µM	> 100 µM (inactive)	> 100 µM (inactive)	> 100 µM (inactive)	> 100 µM (inactive)	> 100 µM (inactive)		> 100 µM (inactive)	> 100 µM (inactive)	> 100 µM (inactive)	> 100 µM (inactive)	> 100 µM (inactive)	> 100 µM (inactive)	> 100 µM (inactive)	> 100 µM (inactive)	> 100 µM (inactive)
CC12c3c4cccc3Oc3cc(N)cc(c31)Oc1cc(N)cc(c12)O4	2.74 µM (inactive)	11.1 µM (inactive)	3.84 µM (inactive)	4.14 µM	21.4 µM (inactive)	2.01 µM (inactive)	4.18 µM (inactive)	4.37 µM (inactive)	5.13 µM (inactive)	10.4 µM (inactive)	6.21 µM (inactive)	9.86 µM (inactive)	3.3 µM (inactive)	4.11 µM (inactive)	8.28 µM (inactive)	3.48 µM (inactive)	5.71 µM (inactive)	0.736 µM (active)	
COc1ccc(/C=C2/C(=O)C(c3ccccc3)N(c3ccccc3)C2=O)cc1OC (configuration not stated)	1.41 µM (inactive)	> 10 µM (inactive)	> 10 µM (inactive)	> 10 µM	> 10 µM (inactive)	> 10 µM (inactive)		> 10 µM (inactive)	> 10 µM (inactive)	> 10 µM (inactive)	> 10 µM (inactive)	> 10 µM (inactive)	0.168 µM (active)	> 10 µM (inactive)	> 10 µM (inactive)	> 10 µM (inactive)	> 10 µM (inactive)	> 10 µM (inactive)	> 10 µM (inactive)
O=C(Nc1cc(C(=O)Nc2cccc(S(=O)(=O)O)c2)cc(C(=O)Nc2cccc(S(=O)(=O)O)c2)c1)c1cccc(C(=O)Nc2cc(C(=O)Nc3cccc(S(=O)(=O)O)c3)cc(C(=O)Nc3cccc(S(=O)(=O)O)c3)c2)c1	84.7 µM (inactive)	> 100 µM (inactive)	> 100 µM (inactive)	50.7 µM		> 100 µM (inactive)	25.6 µM (inactive)	> 100 µM (inactive)	> 100 µM (inactive)	> 100 µM (inactive)	> 100 µM (inactive)	> 100 µM (inactive)	> 100 µM (inactive)	> 100 µM (inactive)	> 100 µM (inactive)	> 100 µM (inactive)	> 100 µM (inactive)	> 100 µM (inactive)	17.7 µM (inactive)
CN(c1cn(C2CC[C@@H](CO)O2)c(=O)[nH]c1=O)C1CCCCC1 (some centres not stated)	> 100 µM (inactive)	> 100 µM (inactive)	> 100 µM (inactive)	> 100 µM	> 100 µM (inactive)	> 100 µM (inactive)	> 100 µM (inactive)	> 100 µM (inactive)	> 100 µM (inactive)	> 100 µM (inactive)	> 100 µM (inactive)		> 100 µM (inactive)	> 100 µM (inactive)	> 100 µM (inactive)	> 100 µM (inactive)		> 100 µM (inactive)	> 100 µM (inactive)
Oc1ccc(/C=C/c2cc(O)cc3c2C(c2cc(O)cc(O)c2)C(c2ccc(O)c(O)c2)O3)cc1 (configuration not stated)	33.5 µM (inactive)	15 µM (inactive)	23.7 µM (inactive)	20 µM	37.1 µM (inactive)	17.6 µM (inactive)		33.3 µM (inactive)	11.6 µM (inactive)	16.8 µM (inactive)	25.1 µM (inactive)	28.4 µM (inactive)	17.2 µM (inactive)	32.5 µM (inactive)	17.6 µM (inactive)	39.2 µM (inactive)	25.3 µM (inactive)	8.34 µM (inactive)	27.1 µM (inactive)
